The test concerns 616215-338-R-J1-PDC complex spheroid viability. Description: Anticancer human tumor 616215-338-R-J1-PDC patient-derived colon adenocarcinoma cell line growth inhibition [RAS]. The note with it: for viability, T/C: stronger effect = lower value; for IC50: curve of compound. An excerpt: RAS pathway inhibitors in Combinations in Complex Spheroids
A high-throughput screen of multi-cell type tumor spheroids was designed to identify active combinations of RAS pathway inhibitors and targeted small molecules. Complex spheroids include a stromal component modeled by human endothelial cells (HUVEC) and fibroblasts modeled by human mesenchymal stem cells (MSCs). The concentration ranges selected for each drug and investigational agent were based upon clinically achievable concentrations if the clinical Cmax of the agent was known.
Compounds. The drugs and investigational agents: abemaciclib (NSC768073), cobimetinib (NSC768068), divarasib (GDC6063, NSC841802), docetaxel (NSC628503), GDC-1971 (RLY-1971, NSC841576), gemcitabine (NSC613327), inavolisib (NSC800729), ipatasertib (NSC767898), KB-0742 (NSC834161), MRTX-1133 (NSC836407), osimertinib (NSC779217), RMC-4630 (NSC839698), RMC-6236 (NSC851965), RMC-6291 (NSC852671), Ro-3306 (NSC812927), sapanisertib (NSC764658), SN-38 (NSC673596), staurosporine (NSC755774), SY5609 (NSC837396), and tovorafenib (DAY101, NSC766906), were obtained from the National Cancer Institute (NCI) Developmental Therapeutics Program Chemical Repository. The FDA-approved anticancer drug set is available from the NCI Developmental Therapeutics Program. […] The stock solutions were prepared in dimethyl sulfoxide (DMSO, Sigma-Aldrich, St. Louis, MO, cat. D2650) at 800-fold the tested concentration and stored at -70 degrees C prior to their use. All drugs and investigational agents were tested over a range starting from a high concentration at or near the clinical Cmax and decreasing in half-log increments. If the clinical Cmax for an agent had not been determined, the highest concentration tested was 10 microM.
Cell Culture. All cells were maintained in an incubator at 37 degrees C and 5% CO2 with 95% humidity. The PDC lines were cultured according to standard operating procedures established by the NCI PDMR. All PDCs were thawed and cultured in Matrigel-coated flasks prepared with a working solution of 1X Ham's F-12 nutrient mix, without supplementation (Invitrogen, Waltham, MA, cat. 11765054), 100 U/mL penicillin-streptomycin (Invitrogen, cat. 15140122), and 2.5% Matrigel (Corning Inc., Corning, NY, cat. 354248) for the first three passages. The 362531-283-R-J2-PDC and 782815-120-R-J1-PDC lines were cultured in 6C/Colon 1B media, which includes advanced DMEM/F-12 (Thermo Fisher Scientific, cat. 12634028), 10 mM HEPES (Thermo Fisher Scientific, cat. 15630080), 1X GlutaMAX supplement (Thermo Fisher Scientific, cat. 35050061), 0.1 mg/mL primocin (InvivoGen, San Diego, CA, cat. ant-pm-2), 10% defined fetal bovine serum, heat inactivated (HyClone Laboratories Inc., Logan, UT, cat. SH30070.03HI), 50% L-WRN conditioned media (ATCC, cat. CRL-3276), 1.25 mM N-Acetyl-L-cysteine (Sigma-Aldrich, cat. A9165), 10 mM nicotinamide (Sigma-Aldrich, cat. N0636), 1X B-27 supplement (Thermo Fisher Scientific, cat. 17504044), 1X N-2 supplement (Thermo Fisher Scientific, cat. 17502048), 50 ng/mL human EGF (Thermo Fisher Scientific, cat. PHG0311), and 10 microM Y-27632 dihydrochloride (Tocris Bioscience, cat. 1254). The K12877-001-R-J1-PDC line was cultured in 6I media, which includes all 6C/Colon 1B media plus 10 ng/mL human FGF-10 (PeproTech, cat. 100-26), 1 ng/mL human FGF-2 (PeproTech, cat. 100-18B), 1 µM prostaglandin E2 (Tocris Bioscience, cat. 2296), […] hydrocortisone (Sigma-Aldrich, cat. H4001), and […] bovine insulin (Sigma-Aldrich, cat. I6634). The K86415-001-R-J1-PDC line was cultured in 6D media, which includes all 6C/Colon 1B media components minus the L-WRN conditioned media. The 485176-168-R4-J1-PDC was cultured in PANC media, which includes all 6C/Colon 1B media plus 100 ng/mL human FGF-10 (PeproTech, cat. 100-26), 500 nM SB-431542 (Selleckchem, cat. S1067), and 10 nM gastrin (Tocris Bioscience, cat. 3006). […]

Structures are written as SMILES. Several values for one entry are separate records, joined by “and”; a condition that tells them apart may be missing. Equal entries are not always repeated.
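Note: spheroids exposed to agents for seven days before viability readout.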

As a reminder, the viability, T/C is the result in the treated group divided by that in the control group, in per cent. Broadly, the IC50 is the concentration at which inhibition is half-maximal. In the case of `CC(=O)OC12COC1CC(O)C1(C)C(=O)C(O)C3=C(C)C(OC(=O)C(O)C(NC(=O)OC(C)(C)C)c4ccccc4)CC(O)(C(OC(=O)c4ccccc4)C21)C3(C)C` (stereo not drawn), the IC50 was under 0.0316 µM. In addition, the viability, T/C (compound 0.0316 µM) is 27.8% [middle of 4 runs]. The viability, T/C (compound 0.1 µM) was 21% [middle of 4 runs]. Also, the viability, T/C (compound 0.316 µM) was 19.1% (2×) and 21.2% and 18.8%. Moreover, for the setting “compound 1 µM”, the viability, T/C was 21.3% [middle of 4 runs]. The viability, T/C (compound 3.16 µM) is 22.3% [middle of 4 runs]. For the same molecule, the viability, T/C (compound 10 µM) is 28.5% [middle of 4 runs].
On to `CC1(O)CCCC1n1c(=O)c(C(F)F)cc2cnc(NC3CCN(S(C)(=O)=O)CC3)nc21` (stereo not drawn), for which the IC50 was 1.23 µM [middle of 4 runs]. The viability, T/C (compound 0.0316 µM) is 112% [middle of 4 runs]. Moreover, the viability, T/C (compound 0.1 µM) was 103% [middle of 4 runs]. Moreover, the viability, T/C (compound 0.316 µM) was 59.3% [middle of 4 runs]. Also, under “compound 1 µM”, the viability, T/C is 56.1% [middle of 4 runs]. Also, the viability, T/C (compound 3.16 µM) is 48.9% [middle of 4 runs]. Besides, under “compound 10 µM”, the viability, T/C was 2.6% [middle of 4 runs].
As for `CCC(CC)c1cc(NC2CCC(N)C2)n2nccc2n1` (stereo not drawn), the IC50 was 1.8 µM [middle of 4 runs]. Moreover, the viability, T/C (compound 0.0316 µM) is 109% [middle of 4 runs]. In addition, the viability, T/C (compound 0.1 µM) is 99.7% and 102% (2×) and 93.3%. Further, the viability, T/C (compound 0.316 µM) is 93.8% [middle of 4 runs]. For the same molecule, under “compound 1 µM”, the viability, T/C is 107% [middle of 4 runs]. Also, the viability, T/C (compound 3.16 µM) was 0.63% [middle of 4 runs]. For the same molecule, the viability, T/C (compound 10 µM) is 0.37% [middle of 4 runs].
For `C[C@@H](NC(=O)c1ncnc(N)c1Cl)c1ncc(C(=O)Nc2cc(C(F)(F)F)c(Cl)cn2)s1`, the IC50 is > 10 µM and 8.87 µM. Moreover, under “compound 0.0316 µM”, the viability, T/C is 102% [middle of 4 runs]. In addition, the viability, T/C (compound 0.1 µM) is 110% [middle of 4 runs]. For the same molecule, the viability, T/C (compound 0.316 µM) is 112% [middle of 4 runs]. In addition, the viability, T/C (compound 1 µM) is 124% and 105% and 112% (2×).
Regarding `Cc1nc(N2CCC3(CC2)COC(C)C3N)c(CO)nc1Sc1ccnc(N)c1Cl` (stereo not drawn), the IC50 was over 10 µM. For the same molecule, the viability, T/C (compound 0.0316 µM) is 105% (2×) and 103% and 97.3%. The viability, T/C (compound 0.1 µM) is 103% (2×) and 106% and 97.7%. For the setting “compound 0.316 µM”, the viability, T/C was 109% [middle of 4 runs]. For the same molecule, the viability, T/C (compound 1 µM) is 108% [middle of 4 runs]. In addition, the viability, T/C (compound 3.16 µM) was 86.9% [middle of 4 runs]. For the same molecule, where the note is “compound 10 µM”, the viability, T/C was 85.4% [middle of 4 runs].
Turning to `NC1c2ccccc2OC12CCN(c1cnc3c(N4CCCc5ncccc54)n[nH]c3n1)CC2` (stereo not drawn), the IC50 is > 10 µM and 3.16 µM and 6.76 µM. In addition, the viability, T/C (compound 0.0316 µM) is 114% [middle of 4 runs]. The viability, T/C (compound 0.316 µM) was 92.2% [middle of 4 runs]. Under “compound 1 µM”, the viability, T/C is 76.5% [middle of 4 runs]. Further, the viability, T/C (compound 10 µM) was 55.8% [middle of 4 runs].

(Values after PubChem BioAssay AID2060898 (Molecular Pharmacology Branch, DTP, NCI, 2025).)
